In the NIST ThermoML archive (doi:10.1021/je100945u):
Numbers after ± are expanded uncertainties.

Conditions: Liquid, Vibrating tube method

CCn1cc[n+](C)c1.O=S(=O)([N-]S(=O)(=O)C(F)(F)F)C(F)(F)F
mass density (283.15 K, 101.33 kPa): 1533.48 ± 0.71 kg/m3
mass density (283.19 K, 1750 kPa): 1533.9 ± 2.5 kg/m3
mass density (283.19 K, 5136 kPa): 1536.34 ± 2.6 kg/m3
mass density (283.19 K, 49993 kPa): 1565.54 ± 3 kg/m3
mass density (283.19 K, 60272 kPa): 1571.51 ± 3.1 kg/m3
mass density (283.19 K, 69996 kPa): 1577 ± 3.3 kg/m3
mass density (283.19 K, 80287 kPa): 1582.65 ± 3.5 kg/m3
mass density (283.19 K, 89994 kPa): 1587.84 ± 3.6 kg/m3
mass density (283.2 K, 10046 kPa): 1539.78 ± 2.6 kg/m3
mass density (283.2 K, 29957 kPa): 1553.14 ± 2.8 kg/m3
mass density (283.2 K, 40033 kPa): 1559.47 ± 2.9 kg/m3
mass density (283.21 K, 20030 kPa): 1546.57 ± 2.7 kg/m3
mass density (283.21 K, 100034 kPa): 1593.02 ± 3.8 kg/m3
mass density (293.14 K, 99755 kPa): 1584.89 ± 3.7 kg/m3
mass density (293.15 K, 101.33 kPa): 1523.37 ± 0.7 kg/m3
mass density (293.15 K, 10202 kPa): 1530.8 ± 2.6 kg/m3
mass density (293.15 K, 89934 kPa): 1579.84 ± 3.6 kg/m3
mass density (293.16 K, 20787 kPa): 1538.14 ± 2.7 kg/m3
mass density (293.16 K, 59685 kPa): 1562.92 ± 3.1 kg/m3
mass density (293.16 K, 69993 kPa): 1568.91 ± 3.3 kg/m3
mass density (293.17 K, 1027 kPa): 1524.24 ± 2.5 kg/m3
mass density (293.17 K, 4981 kPa): 1527.1 ± 2.5 kg/m3
mass density (293.17 K, 29994 kPa): 1544.31 ± 2.8 kg/m3
mass density (293.17 K, 49993 kPa): 1557.07 ± 3 kg/m3
mass density (293.17 K, 79912 kPa): 1574.47 ± 3.4 kg/m3
mass density (293.19 K, 39872 kPa): 1550.73 ± 2.9 kg/m3
mass density (298.12 K, 19701 kPa): 1532.45 ± 2.6 kg/m3
mass density (298.12 K, 29779 kPa): 1539.35 ± 2.8 kg/m3
mass density (298.13 K, 39926 kPa): 1546.05 ± 2.9 kg/m3
mass density (298.14 K, 1156 kPa): 1519.1 ± 2.5 kg/m3
mass density (298.15 K, 101.33 kPa): 1518.34 ± 0.69 kg/m3
mass density (298.15 K, 49997 kPa): 1552.45 ± 3 kg/m3
mass density (298.17 K, 5194 kPa): 1522.08 ± 2.5 kg/m3
mass density (298.18 K, 90001 kPa): 1575.41 ± 3.6 kg/m3
mass density (298.18 K, 99950 kPa): 1580.52 ± 3.7 kg/m3
mass density (298.19 K, 10066 kPa): 1525.62 ± 2.6 kg/m3
mass density (298.19 K, 69997 kPa): 1564.42 ± 3.2 kg/m3
mass density (298.19 K, 79938 kPa): 1570 ± 3.4 kg/m3
mass density (298.2 K, 59613 kPa): 1558.32 ± 3.1 kg/m3
mass density (313.15 K, 101.33 kPa): 1503.33 ± 0.68 kg/m3
mass density (313.15 K, 10156 kPa): 1510.84 ± 2.5 kg/m3
mass density (313.15 K, 29996 kPa): 1525.09 ± 2.7 kg/m3
mass density (313.15 K, 39897 kPa): 1531.84 ± 2.8 kg/m3
mass density (313.15 K, 49994 kPa): 1538.48 ± 2.9 kg/m3
mass density (313.15 K, 60124 kPa): 1544.89 ± 3.1 kg/m3
mass density (313.15 K, 69993 kPa): 1550.88 ± 3.2 kg/m3
mass density (313.16 K, 1963 kPa): 1504.67 ± 2.5 kg/m3
mass density (313.16 K, 19902 kPa): 1517.96 ± 2.6 kg/m3
mass density (313.16 K, 80342 kPa): 1556.93 ± 3.4 kg/m3
mass density (313.16 K, 89994 kPa): 1562.32 ± 3.5 kg/m3
mass density (313.17 K, 5147 kPa): 1507.08 ± 2.5 kg/m3
mass density (313.17 K, 100087 kPa): 1567.72 ± 3.7 kg/m3
mass density (333.13 K, 80064 kPa): 1539.77 ± 3.3 kg/m3
mass density (333.13 K, 89994 kPa): 1545.53 ± 3.4 kg/m3
mass density (333.14 K, 69997 kPa): 1533.66 ± 3.1 kg/m3
mass density (333.14 K, 99911 kPa): 1551 ± 3.6 kg/m3
mass density (333.15 K, 101.33 kPa): 1483.53 ± 0.66 kg/m3
mass density (333.15 K, 60111 kPa): 1527.39 ± 3 kg/m3
mass density (333.16 K, 49997 kPa): 1520.69 ± 2.9 kg/m3
mass density (333.17 K, 2359 kPa): 1485.34 ± 2.5 kg/m3
mass density (333.17 K, 5331 kPa): 1487.73 ± 2.5 kg/m3
mass density (333.17 K, 40159 kPa): 1513.9 ± 2.8 kg/m3
mass density (333.18 K, 30001 kPa): 1506.61 ± 2.7 kg/m3
mass density (333.19 K, 9791 kPa): 1491.26 ± 2.5 kg/m3
mass density (333.19 K, 18829 kPa): 1498.27 ± 2.6 kg/m3
mass density (353.15 K, 101.33 kPa): 1463.97 ± 0.64 kg/m3
mass density (353.18 K, 2168 kPa): 1465.71 ± 2.4 kg/m3
mass density (353.18 K, 5223 kPa): 1468.32 ± 2.4 kg/m3
mass density (353.18 K, 69993 kPa): 1516.73 ± 3.1 kg/m3
mass density (353.18 K, 80056 kPa): 1523.09 ± 3.2 kg/m3
mass density (353.18 K, 90001 kPa): 1529.06 ± 3.4 kg/m3
mass density (353.19 K, 9673 kPa): 1472.06 ± 2.5 kg/m3
mass density (353.19 K, 20093 kPa): 1480.58 ± 2.5 kg/m3
mass density (353.19 K, 29997 kPa): 1488.37 ± 2.6 kg/m3
mass density (353.19 K, 39951 kPa): 1495.89 ± 2.7 kg/m3
mass density (353.19 K, 49979 kPa): 1503.15 ± 2.8 kg/m3
mass density (353.19 K, 60184 kPa): 1510.23 ± 3 kg/m3
mass density (353.19 K, 99944 kPa): 1534.73 ± 3.5 kg/m3
mass density (363.15 K, 101.33 kPa): 1454.28 ± 0.63 kg/m3
mass density (373.12 K, 724 kPa): 1445.01 ± 2.4 kg/m3
mass density (373.14 K, 4935 kPa): 1448.84 ± 2.4 kg/m3
mass density (373.14 K, 60448 kPa): 1493.21 ± 2.9 kg/m3
mass density (373.14 K, 69979 kPa): 1499.69 ± 3 kg/m3
mass density (373.14 K, 79868 kPa): 1506.16 ± 3.2 kg/m3
mass density (373.14 K, 89963 kPa): 1512.49 ± 3.3 kg/m3
mass density (373.14 K, 99920 kPa): 1518.52 ± 3.5 kg/m3
mass density (373.16 K, 30001 kPa): 1470.33 ± 2.6 kg/m3
mass density (373.16 K, 39858 kPa): 1478.08 ± 2.7 kg/m3
mass density (373.16 K, 49997 kPa): 1485.67 ± 2.8 kg/m3
mass density (373.17 K, 10147 kPa): 1453.42 ± 2.4 kg/m3
mass density (373.18 K, 19879 kPa): 1461.85 ± 2.5 kg/m3
